“Also recorded” adds a separate entry of the source.
Test system: PLA2 of five major snake venoms in the U.S. (all major North American crotalid venoms)
Assay: Cross-species anti-PLA2 activity of phage clone
Format: biochemical
Settings: five major snake venoms in the U.S. (FIG. 4)
Experimental: Analysis of PLAz activity was conducted using the EnzChek® PLAz Assay Kit (Thermo Fisher Scientific, Waltham, Mass.). Individual phage clones were standardized to […] and diluted in log steps. Diluted phages were incubated with 4.88 μg/ml Western Cottonmouth venom for 30 minutes at RT. Fluorescence emission spectra (excitation at 485 nm, emission at 528 nm) was measured for 20 minutes at 1.0 minute intervals to monitor the reaction. PLA2 activity was determined by comparing the phage inhibited venom to uninhibited venom controls.
Originally consensus peptide for panning target was designed with ˜95% homology of all major North American crotalid PLA2. This cross-species reactivity of the selected phage clone is the best evidence for the potential development of a universal antivenom using phage display technique.

In the case of KLIHGNGVMDEG [Ph.D.-12-7], the “cross-species anti-PLA2 activities” value was “cross-species anti-PLA2 activity; also recorded: showed anti-PLA2 activities across all major North American crotalid venoms”.
